Patent US20190298720A1, “USE OF SRC FAMILY KINASE INHIBITOR IN RIBOSOMAL DISORDER” (BIOXCEL CORPORATION, priority 2016, published 2019)
“Also recorded” adds a separate entry of the source.

Experiments:
[1] = system: RPS19 knock-down zebrafish embryos; test: Erythropoiesis in a zebrafish model of DBA using RPS19 morpholino (o-dianisidine staining); type: in vivo; conditions: for % improvement of erythropoiesis / % intensity of staining: injected 1 cell stage & aqueous exposure, RPS19 Mo
Procedure: To evaluate the effect of Saracatinib, a Src kinase inhibitor (Lyn kinase) on improving erythropoiesis in a zebrafish model of DBA using RPS19 morpholino.
Materials: Zebrafish (One celled stage), RPS19 morpholino (1 ng) and standard control morpholino were dissolved in ultrapure water. Saracatinib (Selleckchem; Cat no. 51006) was dissolved in 1% DMSO to achieve […], 50 μM and 100 μM concentrations. 0-dianisidine staining solution was made by dissolving 100 mg of 0-dianisidine in 70 mL ethanol, Acetate buffer (49 mL, 0.1 M Sodium acetate and 51 mL, 0.1 M acetic acid), 3% Hydrogen peroxide and ultrapure water; Phosphate buffer saline (PBS), Para formaldehyde (PFA), Tricaine methane sulfonate (ms-222) and Bleach solution (equal parts of 1% Potassium hydroxide and 3% Hydrogen peroxide) were used in the experimental procedures.
(i) Control Mo, Egg water represents the zebrafish embryos which were injected with standard control morpholino, and 1% DMSO thriving in egg water, (ii) RPS19 Mo, Egg water represents wild type zebrafish embryos microinjected with 1 ng of RPS19 morpholino, and 1% DMSO; thriving in egg water, and (iii) RPS19 Mo+Saracatinib injected 1 cell stage and aqueous exposure represents zebrafish embryos which were microinjected with RPS19 morpholino and where Saracatinib was also microinjected at 1-cell stage along with adding Saracatinib in the aqueous phase or egg water.
The wild type zebrafish with egg water were placed in separate wells and were microinjected with standard control morpholino and 1% DMSO, which acted as normal control (Control Mo, Egg water). The wild type zebrafish eggs were injected with 1 ng of RPS19 morpholino and 1% DMSO at 1-cell stage (RPS19 Mo, Egg water), and were incubated at 28.5° C. for 96 hours. Saracatinib was microinjected in the zebra fish at one cell stage and also exposed in the media (aqueous exposure) to achieve optimal concentrations of 25 μM, 50 μM and 100 μM (RPS19 Mo+Saracatinib injected 1 cell stage and aqueous exposure). The experiment was carried out in the 6-well plates for control (Control Mo, Egg water); morpholinos group (RPS19 Mo, Egg water) and Saracatinib treatment group (RPS19 Mo+Saracatinib injected 1 cell stage and aqueous exposure) respectively. The incubation of the zebrafish in various groups was carried out up to 96 hours at 28.5° C. and the embryos were visually observed for any phenotypic changes or mortality. The embryos were euthanized at the end of the study by using tricaine methane sulfonate (ms-222), and fixed in 4% PFA for 2 hours at room temperature. After fixing and washing the embryos thoroughly (3 times) in 1×PBS, o-dianisidine staining was carried out for 30 minutes at room temperature in the dark to assess haemoglobin concentration. Embryos were then washed 3 times in 1×PBS and incubated in bleach solution for 20 minutes at room temperature. Further washing of the embryos were also carried out in 1×PBS to avoid any unnecessary staining. Quantitation of o-dianisidine staining in zebrafish embryos.
Haemoglobin quantification/total amount of the o-dianisidine staining on total embryo was calculated by using Image J software. The total embryo area and the intensity was noted by the software, by manually tracing the exact area of the embryo. The ratios of the intensity and the total embryo area was thus used to calculate the intensity per unit area which is then compared across groups (Control Mo, Egg water; RPS19 Mo, Egg water and RPS19 Mo+Saracatinib injected 1 cell stage and aqueous exposure). Percent intensity of staining of embryos was considered to be proportional to the haemoglobin concentration in each embryo and thus % improvement or recovery of erythropoiesis by administration of Saracatinib was further calculated.

[2] = system: Lyn kinase; test: Lyn kinase activity in RPS19 knock-down zebrafish embryos; type: in vivo; conditions: 25 μM, 50 μM and 100 μM
[3] = system: Id1 expression in lung cancer cell lines; conditions: cited from earlier work

SMILES: CN1CCN(CCOc2cc(OC3CCOCC3)c3c(Nc4c(Cl)ccc5c4OCO5)ncnc3c2)CC1 [Saracatinib, N-(5-chloro-1,3-benzodioxol-4-yl)-7-[2-(4-methyl-1-piperazinyl)ethoxy]-5-[(tetrahydro-2H-pyran-4-yl)oxy]-4-quinazolinamine]
- Erythropoiesis / erythropoietic defect (in words) ([1]; 25 μM, 50 μM and 100 μM, compared to RPS19 injected morpholinos, 96 hpf, o-dianisidine staining): rescue in haemopoietic defect; also recorded: dose related improvement in erythropoiesis; also recorded: improvement in the erythropoietic defect
- % improvement of erythropoiesis ([1]; Saracatinib 25 μM, 96 hpf): 10.49%
- % intensity of staining ([1]; Saracatinib 25 μM, 96 hpf): 2.646%
- % improvement of erythropoiesis ([1]; Saracatinib 50 μM, 96 hpf): 36.75%
- % intensity of staining ([1]; Saracatinib 50 μM, 96 hpf): 3.557%
- % improvement of erythropoiesis ([1]; Saracatinib 100 μM, 96 hpf): 19.82%
- % intensity of staining ([1]; Saracatinib 100 μM, 96 hpf): 3.18%
- Haemoglobin concentration (in words) ([1]; compared to zebrafish treated with RPS19 morpholino): increased haemoglobin concentration
- Lyn kinase activity [2]: decrease in the Lyn kinase activity
- Id1 expression [3]: downregulates the Id1 expression
